Results taken from ChEMBL document CHEMBL4138122, “Azaphenothiazines - promising phenothiazine derivatives. An insight into nomenclature, synthesis, structure elucidation and biological properties” (Eur J Med Chem, 2017).
Values after ≈ are worked out from the molar mass of the structure shown.

Key:
[1] = tested on: OVCAR-5; experiment: Cytotoxicity against human OVCAR5 cells assessed as cell growth inhibition after 48 hrs by SRB assay; format: functional, cell-based; conditions: OVCAR-5, 48 h
[2] = tested on: 786-0; experiment: Cytotoxicity against human 786-O cells assessed as cell growth inhibition after 48 hrs by SRB assay; format: functional, cell-based; conditions: 786-0, 48 h
[3] = tested on: OVCAR-4; experiment: Cytotoxicity against human OVCAR4 cells assessed as cell growth inhibition after 48 hrs by SRB assay; format: functional, cell-based; conditions: OVCAR-4, 48 h
[4] = tested on: NCI-H460; experiment: Cytotoxicity against human NCI-H460 cells assessed as cell growth inhibition after 48 hrs by SRB assay; format: functional, cell-based; conditions: NCI-H460, 48 h
[5] = tested on: SNB-75; experiment: Cytotoxicity against human SNB75 cells assessed as cell growth inhibition after 48 hrs by SRB assay; format: functional, cell-based; conditions: SNB-75, 48 h
[6] = tested on: HOP-92; experiment: Cytotoxicity against human HOP92 cells assessed as cell growth inhibition after 48 hrs by SRB assay; format: functional, cell-based; conditions: HOP-92, 48 h
[7] = tested on: MOLT-4; experiment: Cytotoxicity against human MOLT4 cells assessed as cell growth inhibition after 48 hrs by SRB assay; format: functional, cell-based; conditions: MOLT-4, 48 h
[8] = tested on: PC-3; experiment: Cytotoxicity against human PC3 cells assessed as cell growth inhibition after 48 hrs by SRB assay; format: functional, cell-based; conditions: PC-3, 48 h
[9] = tested on: HCT-116; experiment: Cytotoxicity against human HCT116 cells assessed as cell growth inhibition after 48 hrs by SRB assay; format: functional, cell-based; conditions: HCT-116, 48 h
[10] = tested on: IGROV-1; experiment: Cytotoxicity against human IGROV1 cells assessed as cell growth inhibition after 48 hrs by SRB assay; format: functional, cell-based; conditions: IGROV-1, 48 h
[11] = tested on: SF-295; experiment: Cytotoxicity against human SF295 cells assessed as cell growth inhibition after 48 hrs by SRB assay; format: functional, cell-based; conditions: SF-295, 48 h
[12] = tested on: CCRF-CEM; experiment: Cytotoxicity against human CCRF-CEM cells assessed as cell growth inhibition after 48 hrs by SRB assay; format: functional, cell-based
[13] = tested on: SK-MEL-5; experiment: Cytotoxicity against human SK-MEL-5 cells assessed as cell growth inhibition after 48 hrs by SRB assay; format: functional, cell-based; conditions: SK-MEL-5, 48 h
[14] = molecular target: Vascular cell adhesion protein 1 (Homo sapiens, UniProt P19320); experiment: Inhibition of VCAM1 (unknown origin)
Vascular cell adhesion protein 1, sequence (P19320 whole entry): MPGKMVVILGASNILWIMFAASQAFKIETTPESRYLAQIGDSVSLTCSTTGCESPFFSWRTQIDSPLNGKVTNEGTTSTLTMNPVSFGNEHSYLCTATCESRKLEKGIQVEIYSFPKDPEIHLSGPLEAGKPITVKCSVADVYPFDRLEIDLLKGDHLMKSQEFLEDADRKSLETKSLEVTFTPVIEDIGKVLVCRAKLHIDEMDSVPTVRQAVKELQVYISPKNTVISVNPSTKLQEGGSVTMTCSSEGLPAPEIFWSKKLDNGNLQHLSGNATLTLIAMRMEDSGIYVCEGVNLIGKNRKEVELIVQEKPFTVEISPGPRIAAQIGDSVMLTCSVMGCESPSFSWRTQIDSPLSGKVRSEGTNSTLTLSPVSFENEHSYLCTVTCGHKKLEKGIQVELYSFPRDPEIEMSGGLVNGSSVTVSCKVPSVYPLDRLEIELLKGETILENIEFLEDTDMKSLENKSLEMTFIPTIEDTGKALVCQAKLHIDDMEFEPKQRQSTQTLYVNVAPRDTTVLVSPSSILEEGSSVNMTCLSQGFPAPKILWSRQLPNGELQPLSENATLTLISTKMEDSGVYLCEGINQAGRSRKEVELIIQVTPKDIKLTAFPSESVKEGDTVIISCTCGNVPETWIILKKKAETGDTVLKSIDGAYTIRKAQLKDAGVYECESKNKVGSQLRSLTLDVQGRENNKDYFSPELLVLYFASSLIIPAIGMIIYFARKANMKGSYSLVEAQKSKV

[15] = molecular target: Intercellular adhesion molecule 1 (Homo sapiens, UniProt P05362); experiment: Inhibition of ICAM1 (unknown origin)
Intercellular adhesion molecule 1, sequence (P05362 whole entry): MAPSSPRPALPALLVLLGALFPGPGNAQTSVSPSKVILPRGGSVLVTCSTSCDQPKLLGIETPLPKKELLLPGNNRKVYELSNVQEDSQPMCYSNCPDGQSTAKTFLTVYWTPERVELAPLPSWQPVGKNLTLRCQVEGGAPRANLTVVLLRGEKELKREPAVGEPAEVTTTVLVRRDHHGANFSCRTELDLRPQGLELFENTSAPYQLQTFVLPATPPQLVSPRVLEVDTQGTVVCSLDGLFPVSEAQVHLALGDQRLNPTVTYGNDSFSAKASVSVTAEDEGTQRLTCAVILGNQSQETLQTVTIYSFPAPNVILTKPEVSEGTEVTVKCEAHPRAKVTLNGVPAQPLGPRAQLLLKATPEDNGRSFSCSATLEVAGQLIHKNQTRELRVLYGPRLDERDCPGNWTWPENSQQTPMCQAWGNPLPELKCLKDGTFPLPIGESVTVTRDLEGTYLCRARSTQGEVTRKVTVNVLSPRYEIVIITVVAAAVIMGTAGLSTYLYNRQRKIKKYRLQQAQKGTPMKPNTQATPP

[16] = Oral bioavailability in rat at 3 mg/kg; format: ADME, organism-based; conditions: in vivo
[17] = tested on: Mus musculus; experiment: Anti-inflammatory activity in mouse IL-1-induced paw inflammation model assessed as inhibition of neutrophil infiltration at 10 mg/kg, po; format: functional; conditions: Mus musculus, po
[18] = tested on: Human immunodeficiency virus; experiment: Antiviral activity against HIV infected in human MT4 cells; format: functional, organism-based; conditions: Human immunodeficiency virus 1, MT4
[19] = tested on: MCF7; experiment: Growth inhibition of human MCF7 cells at 10 uM; format: functional; conditions: read-out: GI
[20] = tested on: T47D; experiment: Growth inhibition of human T47D cells at 10 uM; format: functional; conditions: read-out: GI
[21] = tested on: UO-31; experiment: Growth inhibition of human UO31 cells at 10 uM; format: functional; conditions: read-out: GI
[22] = tested on: OVCAR-8; experiment: Cytotoxicity against human OVCAR8 cells assessed as cell growth inhibition after 48 hrs by SRB assay; format: functional, cell-based; conditions: OVCAR-8, 48 h
[23] = tested on: COLO 205; experiment: Cytotoxicity against human COLO205 cells assessed as cell growth inhibition after 48 hrs by SRB assay; format: functional, cell-based; conditions: COLO 205, 48 h
[24] = tested on: HL-60; experiment: Cytotoxicity against human HL60 cells assessed as cell growth inhibition after 48 hrs by SRB assay; format: functional, cell-based; conditions: HL-60, 48 h
[25] = tested on: ACHN; experiment: Cytotoxicity against human ACHN cells assessed as cell growth inhibition after 48 hrs by SRB assay; format: functional, cell-based
[26] = tested on: Liver; experiment: Antioxidant activity in rat liver microsomal membranes assessed as inhibition of Fe(2+)/ascorbate-induced lipid peroxidation; format: functional, microsomes, microsome
[27] = tested on: SNB-19; experiment: Cytotoxicity against human SNB19 cells assessed as cell growth inhibition after 48 hrs by SRB assay; format: functional, cell-based; conditions: SNB-19, 48 h
[28] = tested on: RXF 393; experiment: Cytotoxicity against human RXF393 cells assessed as cell growth inhibition after 48 hrs by SRB assay; format: functional, cell-based; conditions: RXF 393, 48 h
[29] = tested on: Hs-578T; experiment: Cytotoxicity against human Hs578T cells assessed as cell growth inhibition after 48 hrs by SRB assay; format: functional, cell-based
[30] = tested on: SF-539; experiment: Cytotoxicity against human SF539 cells assessed as cell growth inhibition after 48 hrs by SRB assay; format: functional, cell-based; conditions: SF-539, 48 h
[31] = tested on: M14; experiment: Cytotoxicity against human M14 cells assessed as cell growth inhibition after 48 hrs by SRB assay; format: functional, cell-based; conditions: M14, 48 h
[32] = tested on: PBMC; experiment: Inhibition of anti-CD3 induced human PBMC proliferation at 1 ug/ml; format: functional
[33] = tested on: HOP-62; experiment: Cytotoxicity against human HOP62 cells assessed as cell growth inhibition after 48 hrs by SRB assay; format: functional, cell-based; conditions: HOP-62, 48 h
[34] = tested on: HUVEC; experiment: Anti-inflammatory activity in human HUVEC cells assessed as reduction in TNFalpha-induced E-selectin expression after 4 hrs by ELISA; format: functional, cell-based
[35] = tested on: Mus musculus; experiment: Anti-inflammatory activity in IL1-induced paw inflammation Balb/c mouse model assessed as inhibition of neutrophil migration at 10 mg/kg, po, pretreated for 30 mins followed by IL1 challenge measured after 2 hrs by spectrophotometric method; format: functional
[36] = tested on: HUVEC; experiment: Anti-inflammatory activity in human HUVEC cells assessed as reduction in TNFalpha-induced VCAM expression after 4 hrs by ELISA; format: functional, cell-based
[37] = tested on: HepG2; experiment: cells; conditions: Homo sapiens, HepG2, 72 h
Description: Cytotoxicity against human HepG2 cells assessed as inhibition of cell growth after 72 hrs by SRB assay

[38] = tested on: HCT-116; experiment: Cytotoxicity against human HCT116 cells assessed as inhibition of cell growth after 72 hrs by SRB assay; format: functional, cell-based; conditions: HCT-116, 72 h
[39] = tested on: MCF7; experiment: Cytotoxicity against human MCF7 cells assessed as inhibition of cell growth after 72 hrs by SRB assay; format: functional, cell-based; conditions: MCF7, 72 h
[40] = tested on: PC-3; experiment: Cytotoxicity against human PC3 cells assessed as inhibition of cell growth after 72 hrs by SRB assay; format: functional, cell-based; conditions: PC-3, 72 h

Work on `O=C(NCCCl)NCCN1c2nc3ccccc3cc2Sc2cc3ccccc3nc21` yielded an IC50 [1] of 0.25 to 1 µM, an IC50 [2] of 0.25 to 1 µM and an IC50 [3] of 0.25 to 1 µM. For the same compound, the IC50 [4] was 0.25 to 1 µM, the IC50 [5] was 0.25 to 1 µM and the IC50 [6] was 0.25 to 1 µM. For the same compound, the IC50 [7] was 0.25 to 1 µM, the IC50 [8] was 0.25 to 1 µM and the IC50 [9] was 0.25 to 1 µM. For the same compound, the IC50 [10] was 0.25 to 1 µM, the IC50 [11] was 0.25 to 1 µM and the IC50 [12] was 0.25 to 1 µM. The IC50 [13] was 0.087 µM.
Work on `O=C(O)CC1C2CCCC1CN(Cc1ccc3c(c1)Nc1nccnc1S3)C2` (stereo in doubt; 64c) yielded an IC50 [14] of 2.5 µM, an IC50 [15] of 3 µM and a bioavailability [16] of 98.5%. For the same compound, the inhibition in vivo at 10 mg/kg [17] was 91.5%.
`CCOCn1c(=O)[nH]c2c(c1=O)Nc1ccc(C)cc1S2` gave an IC50 [18] of 4.58 µM.
`CCCCN1c2nc3ccccc3cc2Sc2cc3ccccc3nc21` showed an inhibition of growth at 10 µM [19] of 93%, an inhibition of growth at 10 µM [20] of 86% and an inhibition of growth at 10 µM [21] of 78%.
Compound `c1cc2c(cn1)Nc1ccncc1S2` has an IC50 [2] of 3.9 µg/mL, an IC50 [22] of 7.1 µg/mL (≈ 35.3 µM) and an IC50 [23] of 2.4 µg/mL (≈ 11.9 µM). The IC50 [6] was 1.7 µg/mL, the IC50 [24] was 4.1 µg/mL (≈ 20.4 µM) and the IC50 [25] was 5.4 µg/mL (≈ 26.8 µM). It also gave an IC50 [26] of 64 µM, an IC50 [27] of 6.8 µg/mL (≈ 33.8 µM) and an IC50 [28] of 3.1 µg/mL (≈ 15.4 µM). The IC50 [29] was 5.9 µg/mL (≈ 29.3 µM), the IC50 [8] was 8.4 µg/mL and the IC50 [9] was 3.6 µg/mL. It also gave an IC50 [30] of 6.8 µg/mL (≈ 33.8 µM), an IC50 [31] of 6.5 µg/mL (≈ 32.3 µM) and an inhibition at 1 µg/mL [32] of 72%. For the same compound, the IC50 [33] was 0.3 µg/mL (≈ 1.49 µM).
With `CN(C)S(=O)(=O)NC1CCN(Cc2ccc3c(c2)Nc2nccnc2S3)CC1` the IC50 [14] was 4.5 µM, the IC50 [34] was 0.55 µM and the IC50 [15] was 0.27 to 1.4 µM. The inhibition in vivo at 10 mg/kg [35] was 83.4 to 89.7% and the IC50 [36] was 0.36 µM.
In the case of `COc1ccc(-c2c3c(N)c4c(nc3nc3[nH]nc(-c5ccccc5)c23)Sc2ccccc2N4)cc1`, the IC50 [37] is reported as 19.1 µM, the IC50 [38] is reported as 34.5 to 36.5 µM and the IC50 [39] is reported as 34.5 to 36.5 µM. For the same compound, the IC50 [40] was 34.5 to 36.5 µM.
